Experimental data as given in ChEMBL document CHEMBL4346738, “Biological evaluation of molecules of the azaBINOL class as antiviral agents: Inhibition of HIV-1 RNase H activity by 7-isopropoxy-8-(naphth-1-yl)quinoline” (Bioorg Med Chem, 2019).
Active and inactive are the calls of the source. The calls are words filed in the database; no cut-off is given here.

Columns and labels:
[1] = system: Human immunodeficiency virus 1; assay: Antiviral activity against HIV1 89.6 pseudovirus infected in human TZM-bl cells assessed as inhibition of viral infection incubated for 20 mins prior to infection and measured after 48 hrs post infection by bright Glo-luciferase reporter gene assay; type: functional, organism-based, M:B_89.6
[2] = Selectivity index, ratio of CC50 for human TZM-bl cells to IC50 for antiviral activity against HIV1 HXB2 pseudovirus infected in human TZM-bl cells; type: toxicity, cell-based; conditions: read-out: Ratio CC50/IC50
[3] = Cytotoxicity against human LC5 cells assessed as reduction in cell viability incubated for 48 hrs by resazurin dye-based assay; conditions: for CC50 at 48 h: LC5 cells
[4] = Selectivity index, ratio of CC50 for human LC5 cells to IC50 for antiviral activity against HIV1 LAI infected in human LC5 cells; type: toxicity, cell-based; conditions: read-out: Ratio CC50/IC50
[5] = system: Human immunodeficiency virus 1; assay: Antiviral activity against HIV1 YU2 pseudovirus infected in human TZM-bl cells assessed as inhibition of viral infection incubated for 20 mins prior to infection and measured after 48 hrs post infection by bright Glo-luciferase reporter gene assay; type: functional, organism-based, isolate YU2
[6] = (§1) Cytotoxicity against human TZM-bl cells assessed as reduction in cell viability after 48 hrs by MTT assay; type: cell-based; conditions: TZM-bl cells
[7] = system: Human immunodeficiency virus 1; assay: Antiviral activity against HIV1 LAI infected in human LC5 cells expressing DsRed1 reporter gene assessed as inhibition of viral infection measured after 48 hrs post infection by reporter gene based […] assay; type: functional, organism-based
[8] = system: Human immunodeficiency virus 1; assay: Antiviral activity against HIV1 HXB2 pseudovirus infected in human TZM-bl cells assessed as inhibition of viral infection incubated for 20 mins prior to infection and measured after 48 hrs by bright Glo-luciferase reporter gene assay; type: functional, organism-based, M:B_HXB2R
[9] = target: T1, Human immunodeficiency virus type 1 reverse transcriptase (Human immunodeficiency virus 1, UniProt Q72547); assay: Inhibition of HIV1 reverse transcriptase RNase H using 18-nucleotide 3'-fluorescein-labeled RNA/5'-dabcyl-labeled DNA hybrid as substrate measured after 1 hr by FRET based assay
[10] = system: Human immunodeficiency virus 1; assay: Antiviral activity against HIV1 89.6 pseudovirus infected in human TZM-bl cells assessed as inhibition of viral infection up to 200 uM incubated for 20 mins prior to infection and measured after 48 hrs post infection by bright Glo-luciferase reporter gene assay; type: functional, organism-based; conditions: M:B_89.6
[11] = target: T1, Human immunodeficiency virus type 1 reverse transcriptase; assay: Inhibition of HIV1 Reverse transcriptase polymerase assessed as decrease in digoxigenin and biotin-dUTP incorporation into DNA using poly(A)/oligo(dT)15 as template/primer by ELISA
[12] = system: Human immunodeficiency virus 1; assay: Antiviral activity against HIV1 YU2 pseudovirus infected in human TZM-bl cells assessed as inhibition of viral infection up to 200 uM incubated for 20 mins prior to infection and measured after 48 hrs post infection by bright Glo-luciferase reporter gene assay; type: functional, organism-based; conditions: isolate YU2
[13] = target: Human immunodeficiency virus type 1 integrase (Human immunodeficiency virus 1, UniProt Q7ZJM1); assay: Inhibition of recombinant HIV1 integrase strand transfer activity using biotin-labeled double-stranded HIV1 LTR U5 donor DNA substrate pretreated for 5 mins followed by substrate addition and measured after 30 mins by ELISA
Sequence of Human immunodeficiency virus type 1 integrase (Q7ZJM1 whole entry): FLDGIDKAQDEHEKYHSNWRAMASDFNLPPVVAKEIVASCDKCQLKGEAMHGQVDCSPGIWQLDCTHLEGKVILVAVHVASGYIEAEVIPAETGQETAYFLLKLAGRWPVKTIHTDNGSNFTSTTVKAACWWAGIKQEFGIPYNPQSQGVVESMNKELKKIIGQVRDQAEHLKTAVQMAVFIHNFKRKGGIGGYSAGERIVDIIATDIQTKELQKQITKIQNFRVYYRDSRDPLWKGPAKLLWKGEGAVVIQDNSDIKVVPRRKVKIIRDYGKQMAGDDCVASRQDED

[14] = Inhibition of Escherichia coli reverse transcriptase RNase H using 18-nucleotide 3'-fluorescein-labeled RNA/5'-dabcyl-labeled DNA hybrid as substrate measured after 1 hr by FRET based assay
Reverse transcriptase = Reverse transcriptase (Moloney murine leukemia virus, UniProt Q83371); assay: Inhibition of Murine leukemia virus reverse transcriptase RNase H using 18-nucleotide 3'-fluorescein-labeled RNA/5'-dabcyl-labeled DNA hybrid as substrate measured after 1 hr by FRET based assay
[15] = system: Human immunodeficiency virus 1; assay: Antiviral activity against HIV1 HXB2 pseudovirus infected in human TZM-bl cells assessed as inhibition of viral infection up to 200 uM incubated for 20 mins prior to infection and measured after 48 hrs post infection by bright Glo-luciferase reporter gene assay; type: functional, organism-based; conditions: M:B_HXB2R
TZM = assay: as §1; type: cell-based; conditions: tzm, 48 h
[16] = system: Human immunodeficiency virus 1; assay: Antiviral activity against HIV1 LAI infected in human LC5 cells expressing DsRed1 reporter gene assessed as inhibition of viral infection up to 200 uM measured after 48 hrs post infection by reporter gene based […] assay; type: functional, organism-based
[17] = target: T1, Human immunodeficiency virus type 1 reverse transcriptase; assay: Binding affinity to recombinant wild-type full length HIV1 reverse transcriptase p66/p51 expressed in Escherichia coli by biolayer interferometry
[18] = Compound aggregation in D2O/1% DMSO-d6 solvent assessed as number of resonance at 12 to 200 uM by 1H NMR dilution analysis; type: physicochemical
[19] = Inhibition of Avian myeloblastosis virus reverse transcriptase RNase H using 18-nucleotide 3'-fluorescein-labeled RNA/5'-dabcyl-labeled DNA hybrid as substrate measured after 1 hr by FRET based assay
[20] = system: Human immunodeficiency virus 1; assay: Selectivity ratio of IC50 for HIV1 V13-03413B infected in human LC5 cells to IC50 for HIV1 LAI infected in human LC5 cells; type: functional
[21] = Metal chelating activity assessed as compound-Mg2+ complex formation in presence of varying concentrations of Mg2+ at 100 uM by UV-vis spectrometry; type: ADME
[22] = system: Human immunodeficiency virus 1; assay: Antiviral activity against HIV1 V13-03413B infected in human LC5 cells expressing DsRed1 reporter gene assessed as inhibition of viral infection measured after 48 hrs post infection by reporter gene based […] assay; type: functional, organism-based; conditions: Human immunodeficiency virus 1, V13-03413B
[23] = Compound aggregation in D2O/1% DMSO-d6 solvent assessed as change in chemical shift at 12 to 200 uM by 1H NMR dilution analysis; type: physicochemical
[24] = Compound aggregation in D2O/1% DMSO-d6 solvent assessed as peak shape at 12 to 200 uM by 1H NMR dilution analysis; type: physicochemical
[25] = Selectivity index, ratio of CC50 for human TZM-bl cells to IC50 for antiviral activity against HIV1 89.6 pseudovirus infected in human TZM-bl cells; type: toxicity, cell-based; conditions: read-out: Ratio CC50/IC50
[26] = Half life of the compound in methyl alcohol assessed as compound racemization at 24 degC; type: physicochemical
[27] = system: Human immunodeficiency virus 1; assay: Antiviral activity against HIV1 HXB2 pseudovirus infected in human TZM-bl cells assessed as inhibition of viral infection at 20 nM measured after 48 hrs post infection by bright Glo-luciferase reporter gene assay relative to control; type: functional; conditions: Human immunodeficiency virus 1, M:B_HXB2R
[28] = system: Human immunodeficiency virus 1; assay: Antiviral activity against HIV1 89.6 pseudovirus infected in human TZM-bl cells assessed as inhibition of viral infection at 20 nM measured after 48 hrs post infection by bright Glo-luciferase reporter gene assay relative to control; type: functional; conditions: Human immunodeficiency virus 1, M:B_89.6, TZM-bl
[29] = system: Human immunodeficiency virus 1; assay: Antiviral activity against HIV1 YU2 pseudovirus infected in human TZM-bl cells assessed as inhibition of viral infection at 20 nM measured after 48 hrs post infection by bright Glo-luciferase reporter gene assay relative to control; type: functional; conditions: Human immunodeficiency virus 1, isolate YU2, TZM-bl
[30] = Human immunodeficiency virus 1, M:B_89.6, TZM-bl, read-out: IC50
[31] = Human immunodeficiency virus 1, isolate YU2, TZM-bl, read-out: IC50
[32] = Human immunodeficiency virus 1, LAI, 48 h, read-out: IC50
[33] = Human immunodeficiency virus 1, M:B_HXB2R, TZM-bl, read-out: IC50

Compound: CCN(CC)C(=O)Oc1ccc2ccccc2c1-c1cccc2cccnc12
- IC50 [1, 30]: 16.8 µM
- selectivity ratio [2]: 5.5
- CC50 at 48 h [3]: 71.4 µM
- selectivity ratio [4]: 1.4
- IC50 [5, 31]: 14 µM
- CC50 at 48 h [6]: 69.3 µM
- IC50 [7, 32]: 50.1 µM
- IC50 [8, 33]: 12.6 µM

Compound: NC(=O)c1c(N)sc2c1CCCCC2
- IC50 [9]: 28.1 µM

Compound: CC(C)Oc1ccc2cccnc2c1-c1cccc2cccnc12
- Activity [10]: inactive
- IC50 [11]: > 100 µM
- Activity [12]: inactive
- IC50 [13]: > 100 µM
- IC50 [9]: > 100 µM
- IC50 [14]: > 100 µM
- IC50 [1]: Not Active
- IC50 (Reverse transcriptase): > 100 µM
- CC50 ([3]; 48 h): Non-Toxic
- Activity [15]: inactive
- IC50 [5]: Not Active
- CC50 (TZM): Non-Toxic
- IC50 [7]: Not Active
- Activity [16]: inactive
- IC50 [8]: Not Active

Compound: Cc1cc(/C=C/C#N)cc(C)c1Nc1ccnc(Nc2ccc(C#N)cc2)n1 [RILPIVIRINE]
- IC50 [9]: > 10 µM
- IC50 [14]: > 10 µM
- IC50 (Reverse transcriptase): > 10 µM

Compound: CC(C)Oc1ccc2cccnc2c1-c1cccc2ccccc12
- Kd [17]: 38 µM
- IC50 [11]: > 100 µM
- Activity [18]: Not Active
- IC50 [13]: > 100 µM
- IC50 [9]: 46.8 µM
- IC50 [14]: 44.3 µM
- IC50 [19]: > 100 µM
- Ratio IC50 [20]: 5
- IC50 [1, 30]: 4.7 µM
- Activity [21]: Not Active
- IC50 (Reverse transcriptase): > 100 µM
- IC50 [22]: 34.2 µM
- CC50 at 48 h [3]: 86.5 µM
- selectivity ratio [4]: 11.4
- Activity [23]: Not Active
- IC50 [5, 31]: 8.9 µM
- CC50 at 48 h [6]: 68.5 µM
- Activity [24]: Not Active
- IC50 [7, 32]: 6.7 µM
- IC50 [8, 33]: 6.7 µM
- selectivity ratio [25]: 14.6

Compound: CC(C)Oc1ccc2ccccc2c1-c1cccc2cccnc12
- IC50 [1, 30]: > 100 µM
- CC50 at 48 h [3]: 145 µM
- selectivity ratio [4]: 3.6
- IC50 [5, 31]: > 100 µM
- CC50 at 48 h [6]: > 100 µM
- IC50 [7, 32]: 39.5 µM
- IC50 [8, 33]: > 100 µM

Compound: O=C1Nc2ccc(Cl)cc2[C@@](C#CC2CC2)(C(F)(F)F)O1 [EFAVIRENZ]
- CC50 (TZM): Non-Toxic

Compound: CCN(CC)C(=O)Oc1ccc2cccnc2c1-c1cccc2cccnc12
- Activity [10]: inactive
- Activity [12]: inactive
- IC50 [1]: Not Active
- CC50 at 48 h [3]: 383 µM
- Activity [15]: inactive
- IC50 [5]: Not Active
- CC50 (TZM): Non-Toxic
- IC50 [7]: Not Active
- Activity [16]: inactive
- IC50 [8]: Not Active

Compound: Oc1ccc2ccccc2c1-c1cccc2cccnc12
- half-life [26]: 89 h

Compound: CCN(CC)C(=O)Oc1ccc2cccnc2c1-c1cccc2ccccc12
- IC50 [1, 30]: 56.6 µM
- CC50 at 48 h [3]: 51.9 µM
- selectivity ratio [4]: 2.2
- IC50 [5, 31]: 77.6 µM
- CC50 at 48 h [6]: 95 µM
- IC50 [7, 32]: 24.1 µM
- IC50 [8, 33]: 61.4 µM
- selectivity ratio [25]: 1.7

Compound: COc1cnc(-n2cnc(C)n2)c2[nH]cc(C(=O)C(=O)N3CCN(C(=O)c4ccccc4)CC3)c12
- inhibition at 0.02 µM [27]: 100%
- inhibition at 0.02 µM [28]: 100%
- inhibition at 0.02 µM [29]: 100%

Compound: Oc1ccc2cccnc2c1-c1cccc2ccccc12
- half-life [26]: 120 h
